Source: paper PMC5533769, “A cell-based high-throughput screening assay system for inhibitor compounds of antigen presentation by HLA class II molecule” (Scientific Reports, 2017)
“Also recorded” adds a separate entry of the source.

Tests used:
[1] = biological target: T1, HLA-DR1 (DRA*01:01/DRB1*01:01) (Homo sapiens, UniProt P01903+P01911, A100R/D57E/F55L/F60I/F76Y/I96L/L162R/M171V/P40L/Q125E/R42F/V115G/Y59C); test: FACS binding of biotinylated peptide to HLA-DR1 on HEK293T cells; details: SA-PE, biotinylated peptide 30 µM, >5 h, 3 to 6 independent experiments
[2] = tested on: HLA-DR (DRB1*01:01, DRB1*04:05, DRB1*09:01, DRB1*15:01); test: FACS binding of biotinylated peptide to panel of HLA-DR on HEK293T cells; set-up: species or system human; details: FACS, SA-PE; […]; biotinylated peptide 30 µM, >5 h
parental 3T3 cells [3] = test: FACS binding of biotinylated peptide to parental 3T3 cells; set-up: species or system murine; details: SA-PE, parental 3T3, no HLA-DR, biotinylated peptide 30 µM overnight
[4] = tested on: DRB1 molecules (almost all genotypes); details: ref [25]; cited from earlier work
[5] = tested on: HLA-DR (DRB1*01:01, DRB1*04:05, DRB1*09:01, DRB1*15:01); test: FACS binding of biotinylated peptide to panel of HLA-DR on stable 3T3 cells; set-up: species or system human; details: Supplemental Fig. 1 vs. Supplemental Fig. 2
[6] = biological target: T1, HLA-DR1 (DRA*01:01/DRB1*01:01); test: FACS binding of biotinylated peptide to HLA-DR1 on stable 3T3 cells; details: SA-PE, stable 3T3, DRA*01:01 + DRB1*01:01, biotinylated peptide 30 µM overnight
DR1 (DRB1*01:01) = biological target: T2, DR1 (DRB1*01:01) (Homo sapiens, UniProt P01903+P01911, A100R/D57E/F55L/F60I/F76Y/I96L/L162R/M171V/P40L/Q125E/R42F/V115G/Y59C); test: 96-well plate peptide binding assay, DR1-expressing 3T3 cells, SA-β-gal/4MUG
T2 construct: The open reading frame for DRA or DRB1 were flanked with Xho 1 and EcoR1 sites; expressed in transfected cells

parental 3T3 cells [7] = test: 96-well plate peptide binding assay, parental 3T3 cells, SA-β-gal/4MUG; set-up: species or system murine; details: SA-β-gal 3,000-fold
DR4 (DRB1*04:05) = DR4 (DRB1*04:05) (Homo sapiens, UniProt P01903+P01911, A100R/A169T/D86S/F76Y/I96L/K127E/L162R/M171V/N62H/P40V/Q125Y/R42H/S133A/S149N/S66Y/V115G/V209L/W38E); details: ref [24]; cited from earlier work
Description: To determine the genotype specificity and relative affinity of known epitope peptides, MBP83-99 and BiP336-355 peptide loading assays were performed on cells expressing DRA*01:01 plus various HLA-DRB1 (Supplemental Fig. 1A). […] However, the extent of peptide loading, which is evaluated by the mean fluorescence intensity (MFI), was the highes ...

[8] = biological target: HLA-DR4 (DRA*01:01/DRB1*04:05) (Homo sapiens, UniProt P01903+P01911, A100R/A169T/D86S/F76Y/I96L/K127E/L162R/M171V/N62H/P40V/Q125Y/R42H/S133A/S149N/S66Y/V115G/V209L/W38E); test: FACS binding of biotinylated peptide to HLA-DR4 on HEK293T cells
[9] = tested on: HEK293T cells (non-transfected); type: binding; details: FACS, SA-PE, biotinylated peptide 30 µM, >5 h

## ACPKYVKQNTLKLATG [HA305-320, influenza hemagglutinin (HA) 305–320, biotinylated influenza hemagglutinin peptide]
[1]
  Peptide binding (MFI), HLA-DR1: the highest level
[2]
  Peptide binding across HLA-DR genotypes: did increase in any genotypes of DRB1-expressing cells
Parental 3T3 cells [3]
  Peptide binding to parental 3T3 cells (HLA-independent): significant degree of apparent binding; also recorded: bound to the cell surface independently of HLA, especially avidly in 3T3 cells
[4]
  Binding to DRB1 genotypes: bind to almost all genotypes of DRB1 molecules; also recorded: binds to every genotype of HLA-DRs
[5]
  Binding intensity in 3T3 compared with HEK293T cells: far less than those in HEK293T cells
[6]
  Peptide binding, DR1 on 3T3: increased in cells expressing HLA, especially DR1; also recorded: could be loaded onto HLA to a sufficient level
DR1 (DRB1*01:01)
  Peptide binding to parental 3T3 cells, 96-well, and after maximum: gradually decreased
DR1 (DRB1*01:01); […], HA305-320, obtained at 8 h
  HLA-independent binding share of entire signal, DR1 cells: exceeded 80%
DR1 (DRB1*01:01); […], then gradually decreased
  Time to maximum binding, DR1: 8 h
DR1 (DRB1*01:01); cell-based 96-well assay, […]
  Time to almost plateau loading (Discussion): ~8 h
Parental 3T3 cells [7]
  Peptide loading, parental 3T3, 96-well: a significant amount of HA305-320 binding was observed in the parental cells

## RSTMKPVQKVLEDSDLKKSD [BiP336-355, immunoglobulin binding protein (BiP) 336–355, biotinylated self-antigen peptide of BiP]
[2]
  Peptide binding across HLA-DR genotypes: not to other DR-expressing cells
DR4 (DRB1*04:05)
  Presentation by DR4: self-antigen presented by DR4 (DRB1*04:05)
[8]; HEK293T, DRB1*04:05, incubation extended to 20 h, data not shown
  Peptide binding (MFI), HLA-DR4, extended incubation: could not observe a further increase
[8]; SA-PE, HEK293T transiently expressing DRA*01:01 + DRB1*04:05, biotinylated peptide 30 µM, >5 h
  Peptide binding (MFI), HLA-DR4: could bind to DR4-expressing HEK293T cells, although very slightly
[9]
  Peptide binding to control cells: No loading of either peptide was observed
